Publication PMC11536976 (RSC Advances, 2024)
Read-outs that look alike come from different tables or passages of the source.

Experiments:
Type in all cases: cell-based, human
A549 cells [1] = experiment: MTT cytotoxicity assay, A549; details: for IC50: read-out: IC50 A549; for SI A549: selectivity index = IC50 in MRC-5 / IC50 in A549
SW480 cells = experiment: MTT cytotoxicity assay, SW480; details: for IC50: Homo sapiens, SW480, 72 h, read-out: IC50 SW480; for SI SW480: selectivity index = IC50 in MRC-5 / IC50 in SW480
A549 cells [2] = experiment: Cell cycle analysis by flow cytometry; details: 24 h; for cell population in S phase: control 18.89%; for cell population in G0/G1 phase: control 67.87%
A549 cells [3] = experiment: Apoptosis assay, Annexin V-FITC/PI flow cytometry; details: 24 h; for early apoptotic cells (Q3, annexin+/PI-): control 1.8%; for late apoptotic cells (Q2, annexin+/PI+): control 2.4%

SMILES	IC50 (SW480 cells) [µM]	IC50 (A549 cells [1]; Homo sapiens, A549, 72 h) [µM]	further results
N.N.[Cl][Pt][Cl] [Cisplatin, reference compound]	–	–	IC50 (A549 cells [1]; MTT, 72 h, mean ± SD of 3–4 independent replicates): 5.77 ± 1.6 µM
CCCCNC(=O)c1ccc2nc(-c3cc(OC)c(OC)c(OC)c3)[nH]c2c1 [Compound 5a, N-Butyl-2-(3,4,5-trimethoxyphenyl)-1H-benzo[d]imidazole-6-carboxamide]	46.1 ± 9.23	24.8 ± 5.21	–
COc1cc(-c2nc3ccc(C(=O)NCC(C)C)cc3[nH]2)cc(OC)c1OC [Compound 5b, N-Isobutyl-2-(3,4,5-trimethoxyphenyl)-1H-benzo[d]imidazole-6-carboxamide]	18.8 ± 3.25	0.82 ± 0.2	–
COc1cc(-c2nc3ccc(C(=O)NCc4ccccc4)cc3[nH]2)cc(OC)c1OC [Compound 5c, N-Benzyl-2-(3,4,5-trimethoxyphenyl)-1H-benzo[d]imidazole-6-carboxamide]	34.8 ± 5.37	16.3 ± 5.73	–
COc1cc(-c2nc3ccc(C(=O)NCCc4ccccc4)cc3[nH]2)cc(OC)c1OC [Compound 5d, N-Phenethyl-2-(3,4,5-trimethoxyphenyl)-1H-benzo[d]imidazole-6-carboxamide]	18.2 ± 2.69	0.66 ± 0.13	–
COc1cc(-c2nc3ccc(C(=O)Nc4ccccc4)cc3[nH]2)cc(OC)c1OC [Compound 5e, N-Phenyl-2-(3,4,5-trimethoxyphenyl)-1H-benzo[d]imidazole-6-carboxamide]	5.45 ± 0.67	0.23 ± 0.05	SI SW480 (SW480 cells): 2.1; SI A549 (A549 cells [1]): 50.2
COc1cc(-c2nc3ccc(C(=O)Nc4ccccc4F)cc3[nH]2)cc(OC)c1OC [Compound 5f, N-(2-Fluorophenyl)-2-(3,4,5-trimethoxyphenyl)-1H-benzo[d]imidazole-6-carboxamide]	6.38 ± 1.95	0.67 ± 0.15	SI SW480 (SW480 cells): 1.7; SI A549 (A549 cells [1]): 15.8
COc1cc(-c2nc3ccc(C(=O)Nc4ccccc4Cl)cc3[nH]2)cc(OC)c1OC [Compound 5g, N-(2-Chlorophenyl)-2-(3,4,5-trimethoxyphenyl)-1H-benzo[d]imidazole-6-carboxamide]	49.1 ± 2.84	17.3 ± 3.5	–
COc1cc(-c2nc3ccc(C(=O)Nc4cccc(Cl)c4)cc3[nH]2)cc(OC)c1OC [Compound 5h, N-(3-Chlorophenyl)-2-(3,4,5-trimethoxyphenyl)-1H-benzo[d]imidazole-6-carboxamide]	52.7 ± 2.96	27.5 ± 6.78	–
COc1cc(-c2nc3ccc(C(=O)Nc4ccc([N+](=O)[O-])cc4Cl)cc3[nH]2)cc(OC)c1OC [Compound 5i, N-(2-Chloro-4-nitrophenyl)-2-(3,4,5-trimethoxyphenyl)-1H-benzo[d]imidazole-6-carboxamide]	20.2 ± 7.21	5.78 ± 4.85	–
COc1cc(-c2nc3ccc(C(=O)Nc4ccc(Br)cc4)cc3[nH]2)cc(OC)c1OC [Compound 5j, N-(4-Bromophenyl)-2-(3,4,5-trimethoxyphenyl)-1H-benzo[d]imidazole-6-carboxamide]	15.2 ± 2.58	13.1 ± 1.27	–
COc1cc(-c2nc3ccc(C(=O)Nc4cccc([N+](=O)[O-])c4)cc3[nH]2)cc(OC)c1OC [Compound 5k, N-(3-Nitrophenyl)-2-(3,4,5-trimethoxyphenyl)-1H-benzo[d]imidazole-6-carboxamide]	16.8 ± 1.41	14.4 ± 3.53	–
COc1cc(-c2nc3ccc(C(=O)Nc4ccccc4C)cc3[nH]2)cc(OC)c1OC [Compound 5l, N-(o-Tolyl)-2-(3,4,5-trimethoxyphenyl)-1H-benzo[d]imidazole-6-carboxamide]	9.31 ± 0.21	0.92 ± 0.39	–
COc1cc(-c2nc3ccc(C(=O)Nc4ccc(C)cc4)cc3[nH]2)cc(OC)c1OC [Compound 5m, N-(p-Tolyl)-2-(3,4,5-trimethoxyphenyl)-1H-benzo[d]imidazole-6-carboxamide]	13 ± 1.2	0.52 ± 0.12	SI SW480 (SW480 cells): 1.2; SI A549 (A549 cells [1]): 28.9
COc1cc(-c2nc3ccc(C(=O)Nc4ccc(C)cc4C)cc3[nH]2)cc(OC)c1OC [Compound 5n, N-(2,4-Dimethylphenyl)-2-(3,4,5-trimethoxyphenyl)-1H-benzo[d]imidazole-6-carboxamide]	14.8 ± 1.63	1.38 ± 0.23	–
COc1ccc(NC(=O)c2ccc3nc(-c4cc(OC)c(OC)c(OC)c4)[nH]c3c2)c(OC)c1 [Compound 5o, N-(2,4-Dimethoxyphenyl)-2-(3,4,5-trimethoxyphenyl)-1H-benzo[d]imidazole-6-carboxamide]	3.68 ± 0.59	0.15 ± 0.01	cell population in S phase (A549 cells [2]; A549, 0.15 μM): 43.58%; cell population in G0/G1 phase (A549 cells [2]; A549, 0.15 μM): 46.44%; cell population in G2/M phase (A549 cells [2]; A549, 0.30 μM, control 13.24%): 4.53%; cell population in S phase (A549 cells [2]; A549, 0.30 μM): 60.31%; cell population in G0/G1 phase (A549 cells [2]; A549, 0.30 μM): 35.16%; total apoptosis rate (Q2 + Q3) (A549 cells [3]; A549, 0.15 μM): 15.2%; early apoptotic cells (Q3, annexin+/PI-) (A549 cells [3]; A549, 0.15 μM): 9.8%; late apoptotic cells (Q2, annexin+/PI+) (A549 cells [3]; A549, 0.15 μM): 5.4%; total apoptosis rate (Q2 + Q3) (A549 cells [3]; A549, 0.30 μM): 74.3%; early apoptotic cells (Q3, annexin+/PI-) (A549 cells [3]; A549, 0.30 μM): 34.4%; late apoptotic cells (Q2, annexin+/PI+) (A549 cells [3]; A549, 0.30 μM): 39.9%; fold stronger cytotoxic activity than cisplatin (SW480 cells; SW480 cells): 4.1 fold; fold stronger cytotoxic activity than etoposide (SW480 cells; SW480 cells): 4.5 fold; SI SW480 (SW480 cells): 32.4; fold higher cytotoxic activity than cisplatin (A549 cells [1]; A549 cells): 38.5 fold; fold higher cytotoxic activity than doxorubicin (A549 cells [1]; A549 cells): 3.1 fold; fold higher cytotoxic activity than etoposide (A549 cells [1]; A549 cells): 62.9 fold; SI A549 (A549 cells [1]): 794.6
COc1cccc2c1C(=O)c1c(O)c3c(c(O)c1C2=O)C[C@@](O)(C(=O)CO)C[C@@H]3O[C@H]1C[C@H](N)[C@H](O)[C@H](C)O1 [Doxorubicin, reference compound]	0.59 ± 0.07	0.46 ± 0.02	SI SW480 (SW480 cells): 0.7; SI A549 (A549 cells [1]): 0.8
COc1cc([C@@H]2c3cc4c(cc3[C@@H](O[C@@H]3O[C@@H]5CO[C@@H](C)O[C@H]5[C@H](O)[C@H]3O)[C@H]3COC(=O)[C@H]23)OCO4)cc(OC)c1O [Etoposide, reference compound]	16.6 ± 2.3	9.44 ± 1.98	–
